{"source": "patent US20250144056A1", "about": "“ANTIMICROBIAL HOST DEFENSE PEPTIDE-INDUCING COMPOSITIONS AND METHODS OF PRODUCTION AND USE THEREOF” (Board of Regents for the Oklahoma Agricultural and …, priority 2022, published 2025)", "key": {"[1]": {"tested_on": "AvBD9 gene promoter", "experiment": "HTC/AvBD9-luc luciferase reporter assay", "type": "cell-based, chicken", "procedure": "Culture and stimulation of a stable HTC/AvBD9-luc luciferase reporter cell line. A stable HTC/AvBD9-luc cell line was generated by cloning a 2.0-Kb AvBD9 gene promoter fragment into a lentiviral luciferase reporter vector, pGreenFire1-mCMV-Puro (System Biosciences, Palo Alto, CA) and then transfected into HTC cells as previously described (22). The stable cell line was maintained in RPMI 1640 containing 10% heat-inactivated FBS, 100 U/ml penicillin, 100 μg/mL streptomycin, and 0.5 μg/mL puromycin and subcultured every 3-4 days. To measure transcriptional activation of the AvBD9 gene promoter in response to different epigenetic compounds, cells were seeded at 4×10^4 cells/well in white 96-well tissue culture plates and stimulated in duplicate with different compounds individually or in combination for 24 h. An equal amount of a solvent was applied as a negative control. Luciferase activity was measured using STEADY-GLO® Luciferase Assay System (Promega, Madison, WI) on an L-Max II luminescence microplate reader (Molecular Devices, Sunnyvale, CA). Cell viabilities were assessed by adding alamarBlue Reagent (ThermoFisher, Waltham, MA) to cell culture 4 h before luciferase assay. Relative luciferase activity was determined for each well after normalization to the cell viability as previously described (22)."}, "[2]": {"tested_on": "AvBD9 mRNA expression", "experiment": "RT-qPCR of AvBD9 mRNA expression in HTC macrophage cells", "type": "cell-based, chicken", "procedure": "Culture and stimulation of macrophages. Two different chicken macrophage cell lines, HTC (24) and HD11 (25), were kindly provided by Dr. Narayan C. Rath and Dr. Hyun Lillehoj of USDA-ARS and maintained in RPMI 1640 containing 10% heat-inactivated FBS, 100 U/ml penicillin, and 100 μg/ml streptomycin and subcultured every 3-4 days. After overnight seeding at 1.5×10^6 cells/well in 6-well cell culture plates, cells were treated with different concentrations of each compound for 24 h or with the indicated concentration of each compound for various lengths of time for dose-response and time-course experiments, respectively. To study the synergy between HMTi/DNMTi and HDACi, different concentrations of an HMTi or DNMTi were added to the cells in the presence or absence of an HDACi for 24 h, followed by RNA isolation and HDP gene expression analysis as described below. HTC cells were also stimulated with butyrate, BIX01294, or their combination for 24 h, followed by 3-h stimulation with 10 ng/ml LPS and subsequent expression analysis.\nTotal RNA extraction and gene expression analysis. Total RNA was extracted using RNAzol (Molecular Biology Research Center, Cincinnati, OH) according to the manufacturer's protocol. Gene expression was performed using reverse transcription-quantitative PCR (RT-qPCR) as previously described (27-29). Reverse transcription was performed with 300 ng of total RNA and Maxima® First Strand cDNA Synthesis Kit (ThermoFisher Scientific, Pittsburgh, PA). The cDNA was then diluted 10-fold with RNase-free water prior to real-time PCR using QuantiTect SYBR® Green PCR Kit (Qiagen, Valencia, CA) in 10-μl reactions using primers specific for HDP, barrier function, and inflammatory cytokine genes as described (27, 29, 30). PCR was run in CFX Connect Real-Time PCR System (Bio-Rad, Hercules, CA) using the following program: 95° C. for 10 min, followed by 40 cycles of 94° C. for 15 sec, 55° C. for 20 sec, and 72° C. for 30 sec. The specificity of PCR reactions was confirmed by the melting curve analysis. The glyceraldehyde-3-phosphate dehydrogenase (GAPDH) gene was used as the reference for data normalization. The fold changes in gene expression in the cells treated with individual compounds or in combinations were calculated relative to the cells treated with an equal volume of RPMI 1640 or DMSO using the ΔΔCt method (31)."}}}
{"smiles": "COc1cc2nc(N3CCCN(C)CC3)nc(NC3CCN(Cc4ccccc4)CC3)c2cc1OC", "note": "[BIX01294]", "values": [{"measurement": "activation of the AvBD9 gene promoter (relative luciferase activity)", "setting": "[1]; compound alone, different concentrations, 24 h (FIG. 2, Panel A)", "value": "concentration-dependent activation"}, {"measurement": "synergy in luciferase activity with butyrate", "setting": "[1]; different concentrations in combination with 2 mM butyrate, 24 h (FIG. 3)", "value": "marked dose-dependent increase in the synergy"}, {"measurement": "impact of LPS on the AvBD9-inducing synergy with butyrate", "setting": "[2]; 5 μM BIX01294 + 2 mM butyrate 24 h, then 10 ng/ml LPS 3 h (FIG. 8, Panel C)", "value": "no impact"}, {"measurement": "additional increase in AvBD9 gene expression over BIX01294 alone, combination with mocetinostat", "setting": "[2]; 5 μM BIX01294 in combination with 2.5 μM mocetinostat, 24 h (FIG. 7, Panel A)", "value": 23, "unit": "fold"}, {"measurement": "additional increase in AvBD9 gene expression over BIX01294 alone, combination with butyrate", "setting": "[2]; 5 μM BIX01294 in combination with 2 mM butyrate, 24 h (FIG. 7, Panel A)", "value": 26, "unit": "fold"}, {"measurement": "additional increase in AvBD9 gene expression over BIX01294 alone, combination with vorinostat", "setting": "[2]; 5 μM BIX01294 in combination with vorinostat (SAHA), 24 h (FIG. 7, Panel A)", "value": 69, "unit": "fold"}, {"measurement": "additional increase in AvBD9 expression of the butyrate combination over compound alone", "setting": "[2]; 20 μM compound + 2 mM butyrate versus 20 μM compound alone", "value": 54, "unit": "fold"}, {"measurement": "increase in AvBD9 mRNA expression", "setting": "[2]; 20 μM compound alone, 24 h (FIG. 2, Panel B), peak", "value": 175, "unit": "fold"}, {"measurement": "induction of AvBD9 expression", "setting": "[2]; 20 μM compound alone, 24 h (FIG. 4, Panels A, B)", "value": 207, "unit": "fold"}, {"measurement": "increase in AvBD9 expression, combination with butyrate", "setting": "[2]; 20 μM compound in combination with 2 mM butyrate, 24 h (FIG. 4, Panels A, B)", "value": "11,165 fold"}, {"measurement": "synergy with butyrate in AvBD9 mRNA expression", "setting": "[2]; indicated concentrations in combination with 2 mM butyrate, 24 h (FIG. 4)", "value": "concentration-dependent increase"}, {"measurement": "synergy in AvBD9 induction with HDACi", "setting": "[2]; with any of three HDACi (vorinostat, butyrate, mocetinostat), 24 h (FIG. 7, Panel A)", "value": "dramatic synergy"}]}
